Several values for one entry are separate records, joined by “and”; a condition that tells them apart may be missing. Equal entries are not always repeated.
What was measured:
[1] = DTA
[2] = Molar enthalpy of transition or fusion; settings: DSC
[3] = molar heat capacity at constant pressure; settings: 101.33 kPa

OC1CCCCCCC1 [cyclooctanol]
Settings | Molar enthalpy of transition or fusion, [2] [kcal/mol] | Triple point temperature, [1] [K]
Crystal 1 | 0.457 | 296.78
Crystal 2 | 0.507 | 263.56

[3], Crystal 1, Large sample (1 g) DSC
Settings | molar heat capacity at constant pressure
261.1 K | 235.9 J/K/mol
261.23 K | 236.1 J/K/mol
264 K | 238.7 J/K/mol and 238.8 J/K/mol
267 K | 241.8 J/K/mol and 241.9 J/K/mol
270 K | 245.1 J/K/mol and 245.3 J/K/mol
273 K | 248.9 J/K/mol and 249 J/K/mol
276 K | 252.7 J/K/mol and 252.8 J/K/mol
279 K | 256.9 J/K/mol
282 K | 261.4 J/K/mol and 261.5 J/K/mol
283.88 K | 264.3 J/K/mol
284.25 K | 265.2 J/K/mol

[3], Liquid
Settings | molar heat capacity at constant pressure
301.94 K, Large sample (1 g) DSC | 295.6 J/K/mol
302.06 K, Large sample (1 g) DSC | 295.8 J/K/mol
305 K, Large sample (1 g) DSC | 299.1 J/K/mol
310 K, Large sample (1 g) DSC | 304.6 J/K/mol
315 K, Large sample (1 g) DSC | 310.1 J/K/mol and 310 J/K/mol
318.15 K, Small sample (50 mg) DSC | 313.1 J/K/mol
320 K, Large sample (1 g) DSC | 315.1 J/K/mol
323.14 K, Small sample (50 mg) DSC | 318.2 J/K/mol
325 K, Large sample (1 g) DSC | 320.2 J/K/mol
328.14 K, Small sample (50 mg) DSC | 323.1 J/K/mol
330 K, Large sample (1 g) DSC | 325 J/K/mol and 324.9 J/K/mol
333.14 K, Small sample (50 mg) DSC | 327.7 J/K/mol
335 K, Large sample (1 g) DSC | 329.4 J/K/mol and 329.3 J/K/mol
338.14 K, Small sample (50 mg) DSC | 332.6 J/K/mol
340 K, Large sample (1 g) DSC | 333.7 J/K/mol
343.14 K, Small sample (50 mg) DSC | 337 J/K/mol
345 K, Large sample (1 g) DSC | 338.4 J/K/mol and 338.3 J/K/mol
348.13 K, Small sample (50 mg) DSC | 341.1 J/K/mol
350 K, Large sample (1 g) DSC | 343 J/K/mol and 342.9 J/K/mol
353.13 K, Small sample (50 mg) DSC | 345.4 J/K/mol
355 K, Large sample (1 g) DSC | 347.1 J/K/mol and 347 J/K/mol
357.87 K, Large sample (1 g) DSC | 349.1 J/K/mol
357.94 K, Large sample (1 g) DSC | 349.1 J/K/mol
358.13 K, Small sample (50 mg) DSC | 349.5 J/K/mol
363.12 K, Small sample (50 mg) DSC | 353.5 J/K/mol
366.11 K, Small sample (50 mg) DSC | 355.8 J/K/mol
369.12 K, Small sample (50 mg) DSC | 357.9 J/K/mol
372.13 K, Small sample (50 mg) DSC | 359.6 J/K/mol
375.14 K, Small sample (50 mg) DSC | 361.4 J/K/mol
378.12 K, Small sample (50 mg) DSC | 363 J/K/mol
381.14 K, Small sample (50 mg) DSC | 364.4 J/K/mol
384.12 K, Small sample (50 mg) DSC | 365.8 J/K/mol
387.13 K, Small sample (50 mg) DSC | 366.9 J/K/mol
390.11 K, Small sample (50 mg) DSC | 367.8 J/K/mol
393.12 K, Small sample (50 mg) DSC | 368.7 J/K/mol
396.14 K, Small sample (50 mg) DSC | 369.4 J/K/mol
399.12 K, Small sample (50 mg) DSC | 370 J/K/mol
402.13 K, Small sample (50 mg) DSC | 371 J/K/mol
405.12 K, Small sample (50 mg) DSC | 371.6 J/K/mol
408.13 K, Small sample (50 mg) DSC | 371.9 J/K/mol
411.11 K, Small sample (50 mg) DSC | 372.3 J/K/mol
414.12 K, Small sample (50 mg) DSC | 372.6 J/K/mol
417.13 K, Small sample (50 mg) DSC | 372.9 J/K/mol
420.12 K, Small sample (50 mg) DSC | 373.1 J/K/mol
423.13 K, Small sample (50 mg) DSC | 373.2 J/K/mol
426.11 K, Small sample (50 mg) DSC | 373.2 J/K/mol
429.19 K, Small sample (50 mg) DSC | 373.2 J/K/mol
432.31 K, Small sample (50 mg) DSC | 373.2 J/K/mol
435.12 K, Small sample (50 mg) DSC | 373.2 J/K/mol
438.13 K, Small sample (50 mg) DSC | 373 J/K/mol
441.14 K, Small sample (50 mg) DSC | 372.8 J/K/mol
444.13 K, Small sample (50 mg) DSC | 372.8 J/K/mol
447.14 K, Small sample (50 mg) DSC | 372.7 J/K/mol
450.12 K, Small sample (50 mg) DSC | 372.5 J/K/mol
453.13 K, Small sample (50 mg) DSC | 372.6 J/K/mol
456.14 K, Small sample (50 mg) DSC | 372.6 J/K/mol
459.13 K, Small sample (50 mg) DSC | 372.6 J/K/mol
462.14 K, Small sample (50 mg) DSC | 373 J/K/mol
465.12 K, Small sample (50 mg) DSC | 373.5 J/K/mol
468.14 K, Small sample (50 mg) DSC | 374.1 J/K/mol
471.14 K, Small sample (50 mg) DSC | 374.6 J/K/mol
